Reference: ChEMBL document CHEMBL1201862, “PubChem BioAssay data set” (2004)
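All cell lines were grown in 96-well plates and treated with compound for 48 hours. The concentration for 50% growth inhibition is given as GI50.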 Activity calls are given as the source filed them. Cut-off read from the data, not from the text of the source: active = GI50 up to about 1.1 µM and inactive = higher.

Tests used:
Assay in all cases: NCI tumour cell line growth inhibition, 48 h
[1] = test system: M19-MEL
[2] = test system: NCI-H522
[3] = test system: HOP-18
[4] = test system: HL-60
[5] = test system: HT-29
[6] = test system: K562
[7] = test system: SNB-75
[8] = test system: SK-OV-3
[9] = test system: HOP-62
[10] = test system: SNB-78
[11] = test system: ACHN
[12] = test system: SF-539
[13] = test system: DMS-273
[14] = test system: NCI-H226
[15] = test system: DLD-1
[16] = test system: NCI-H23
[17] = test system: OVCAR-3
[18] = test system: TK-10
[19] = test system: KM12
[20] = test system: M14
[21] = test system: OVCAR-5
[22] = test system: HCT-116
[23] = test system: COLO 205
[24] = test system: SNB-19
[25] = test system: HCC 2998
[26] = test system: LXFL 529
[27] = test system: RPMI-8226
[28] = test system: XF498
[29] = test system: SW-620
[30] = test system: NCI-H460
[31] = test system: SF-295
[32] = test system: 786-0
[33] = test system: CCRF-CEM
[34] = test system: U-251
[35] = test system: OVCAR-8
[36] = test system: A498
[37] = test system: HCT-15
[38] = test system: A549
[39] = test system: UACC-62
[40] = test system: UO-31
[41] = test system: EKVX
[42] = test system: SF-268
[43] = test system: RXF 393
[44] = test system: OVCAR-4
[45] = test system: SK-MEL-28
[46] = test system: SK-MEL-5
[47] = test system: Malme-3M
[48] = test system: SR
[49] = test system: MOLT-4
[50] = test system: RXF 631
[51] = test system: UACC-257
[52] = test system: SN12C
[53] = test system: KM-20L2
[54] = test system: CAKI-1
[55] = test system: SK-MEL-2
[56] = test system: DMS-114
[57] = test system: HOP-92
[58] = test system: IGROV-1
[59] = test system: LOX IMVI

For `O=C1N=C(Nc2ccccc2Cl)SC1C(=O)Nc1ccc([N+](=O)[O-])cc1[N+](=O)[O-]` (stereo unspecified), the GI50 [1] was > 100 µM (inactive), the GI50 [2] was > 100 µM (inactive) and the GI50 [3] was 22 µM (inactive). For the same molecule, the GI50 [4] was > 100 µM (inactive), the GI50 [5] was > 100 µM (inactive) and the GI50 [6] was > 100 µM (inactive). The GI50 [7] was 66.1 µM (inactive), the GI50 [8] was > 100 µM (inactive) and the GI50 [9] was > 100 µM (inactive). For the same molecule, the GI50 [10] was > 100 µM (inactive), the GI50 [11] was > 100 µM (inactive) and the GI50 [12] was > 100 µM (inactive). For the same molecule, the GI50 [13] was > 100 µM (inactive), the GI50 [14] was 82.8 µM (inactive) and the GI50 [15] was > 100 µM (inactive). The GI50 [16] was > 100 µM (inactive), the GI50 [17] was > 100 µM (inactive) and the GI50 [18] was 51.6 µM (inactive). For the same molecule, the GI50 [19] was > 100 µM (inactive), the GI50 [20] was > 100 µM (inactive) and the GI50 [21] was > 100 µM (inactive). For the same molecule, the GI50 [22] was > 100 µM (inactive), the GI50 [23] was > 100 µM (inactive) and the GI50 [24] was > 100 µM (inactive). The GI50 [25] was > 100 µM (inactive), the GI50 [26] was > 100 µM (inactive) and the GI50 [27] was > 100 µM (inactive). The GI50 [28] was > 100 µM (inactive), the GI50 [29] was > 100 µM (inactive) and the GI50 [30] was > 100 µM (inactive). For the same molecule, the GI50 [31] was > 100 µM (inactive), the GI50 [32] was > 100 µM (inactive) and the GI50 [33] was > 100 µM (inactive). The GI50 [34] was > 100 µM (inactive), the GI50 [35] was > 100 µM (inactive) and the GI50 [36] was > 100 µM (inactive). For the same molecule, the GI50 [37] was over 100 µM, the GI50 [38] was > 100 µM (inactive) and the GI50 [39] was > 100 µM (inactive). For the same molecule, the GI50 [40] was 72.4 µM (inactive), the GI50 [41] was > 100 µM (inactive) and the GI50 [42] was > 100 µM (inactive). For the same molecule, the GI50 [43] was > 100 µM (inactive), the GI50 [44] was > 100 µM (inactive) and the GI50 [45] was > 100 µM (inactive). The GI50 [46] was > 100 µM (inactive), the GI50 [47] was > 100 µM (inactive) and the GI50 [48] was > 100 µM (inactive). The GI50 [49] was > 100 µM (inactive), the GI50 [50] was > 100 µM (inactive) and the GI50 [51] was > 100 µM (inactive). The GI50 [52] was > 100 µM (inactive), the GI50 [53] was > 100 µM (inactive) and the GI50 [54] was > 100 µM (inactive). For the same molecule, the GI50 [55] was > 100 µM (inactive), the GI50 [56] was 75.3 µM (inactive) and the GI50 [57] was 32.5 µM (inactive). The GI50 [58] was > 100 µM (inactive).

`O=C(O)c1ccccc1[Se][Se]c1ccccc1C(=O)O` was tested, and the GI50 [1] was 41.4 µM (inactive), the GI50 [2] was 37.9 µM (inactive) and the GI50 [3] was 23.2 µM (inactive). The GI50 [4] was 35.9 µM (inactive), the GI50 [5] was 35.1 µM (inactive) and the GI50 [6] was > 100 µM (inactive). For the same molecule, the GI50 [7] was 29.5 µM (inactive), the GI50 [8] was 85.5 µM (inactive) and the GI50 [9] was 29.7 µM (inactive). The GI50 [11] was > 100 µM (inactive), the GI50 [12] was 23.4 µM (inactive) and the GI50 [13] was 66.1 µM (inactive). For the same molecule, the GI50 [14] was 1.9 µM (inactive), the GI50 [15] was > 100 µM (inactive) and the GI50 [16] was 47.5 µM (inactive). The GI50 [17] was 51.1 µM (inactive), the GI50 [18] was > 100 µM (inactive) and the GI50 [19] was 26.8 µM (inactive). The GI50 [59] was 24.1 µM (inactive), the GI50 [20] was 72.9 µM (inactive) and the GI50 [22] was 37.4 µM (inactive). The GI50 [23] was > 100 µM (inactive), the GI50 [24] was 11.2 µM (inactive) and the GI50 [25] was 89.7 µM (inactive). For the same molecule, the GI50 [27] was 66.2 µM (inactive), the GI50 [28] was 70 µM (inactive) and the GI50 [29] was > 100 µM (inactive). For the same molecule, the GI50 [30] was 30.8 µM (inactive), the GI50 [31] was 28.4 µM (inactive) and the GI50 [32] was 75.2 µM (inactive). For the same molecule, the GI50 [33] was 56 µM (inactive), the GI50 [34] was 40.8 µM (inactive) and the GI50 [35] was 43.5 µM (inactive). The GI50 [36] was 95.7 µM (inactive), the GI50 [37] was 55.1 µM and the GI50 [38] was 51.1 µM (inactive). The GI50 [39] was 27.5 µM (inactive), the GI50 [40] was 2.73 µM (inactive) and the GI50 [42] was 40.2 µM (inactive). The GI50 [43] was 38.3 µM (inactive), the GI50 [45] was 38.1 µM (inactive) and the GI50 [46] was > 100 µM (inactive). For the same molecule, the GI50 [47] was 47.2 µM (inactive), the GI50 [49] was 43.8 µM (inactive) and the GI50 [50] was 28.4 µM (inactive). For the same molecule, the GI50 [51] was 49.5 µM (inactive), the GI50 [52] was 53 µM (inactive) and the GI50 [53] was 25.8 µM (inactive). For the same molecule, the GI50 [54] was 61.8 µM (inactive), the GI50 [55] was 44.4 µM (inactive) and the GI50 [56] was 32.3 µM (inactive). The GI50 [57] was 39 µM (inactive) and the GI50 [58] was 51.6 µM (inactive).
